Patent US12024510B2, “Pyrazolopyridine-diamides, their use as insecticide and processes for preparing the same” (PI INDUSTRIES LTD., priority 2017, dated 2024)

Legend:
Assay type in all cases: in vivo
Helicoverpa armigera = Helicoverpa armigera diet incorporation method; details: third instar larvae, dead and moribund combined, 96 h after release
Outline: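 Third-instar larvae, starved, were placed singly on diet pieces containing test dispersion (bead-milled in surfactant, particles under 2 μm, 500 ppm stock then diluted). Trays kept at 25° C. and 70% RH; mortality counted at 96 h, moribund larvae counted with dead.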

Spodoptera litura = Spodoptera litura diet incorporation method; details: third instar larvae, dead and moribund combined, 96 h after release
Outline: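 Compound milled to <2 μm average particle size in surfactant, dispersed in water (500 ppm stock dispersion), then mixed into semi-synthetic diet at ~50° C. One starved third-instar larva per diet cell, 25° C, 70% RH; percent mortality (dead plus moribund) scored at 96 h.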

Plutella xylostella = assay: whole plant or invertebrate; details: foliar, cabbage leaf dip, second instar larvae, dead and moribund combined, 72 h after release
Outline: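 Leaf-dip bioassay: second-instar larvae, singly, fed on cabbage leaves dipped 10 s in test dispersion (bead-milled, diluted with 0.01% Triton-X to test concentration) and dried 20 min. Held at 25 °C, 70% RH; % mortality counts dead and moribund at 72 h.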

Measured: mortality at 300 ppm

CNC(=O)c1c(NC(=O)c2cc(C(F)(F)F)nn2-c2ncccc2Cl)c(Cl)cc2ccnn12 [Compound 162, 5-chloro-6-(1-(3-chloropyridin-2-yl)-3-(trifluoromethyl)-1H-pyrazole-5-carboxamido)-N-methylpyrazolo[1,5-a]pyridine-7-carboxamide]
> 70%: all assays above

CONC(=O)c1c(NC(=O)c2cc(OCC(F)(F)F)nn2-c2ncccc2Cl)c(C)cc2ccnn12 [Compound 16, 6-(1-(3-chloropyridin-2-yl)-3-(2,2,2-trifluoroethoxy)-1H-pyrazole-5-carboxamido)-N-methoxy-5-methylpyrazolo[1,5-a]pyridine-7-carboxamide]
> 70%: all assays above

C#CCNC(=O)c1c(NC(=O)c2cc(Br)nn2-c2ncccc2Cl)c(Cl)cc2ccnn12 [Compound 141, 6-(3-bromo-1-(3-chloropyridin-2-yl)-1H-pyrazole-5-carboxamido)-5-chloro-N-(prop-2-yn-1-yl)pyrazolo[1,5-a]pyridine-7-carboxamide]
> 70%: all assays above

Cc1cc2ccnn2c(C(=O)NC(C)C(F)(F)F)c1NC(=O)c1cc(Br)nn1-c1ncccc1Cl (stereo not drawn) [Compound 187, 6-(3-bromo-1-(3-chloropyridin-2-yl)-1H-pyrazole-5-carboxamido)-5-methyl-N-(1,1,1-trifluoropropan-2-yl)pyrazolo[1,5-a]pyridine-7-carboxamide]
> 70%: all assays above

COc1cc(C(=O)Nc2c(C)cc3ccnn3c2C(=O)NC2COC2)n(-c2ncccc2Cl)n1 [Compound 46, 6-(1-(3-chloropyridin-2-yl)-3-methoxy-1H-pyrazole-5-carboxamido)-5-methyl-N-(oxetan-3-yl)pyrazolo[1,5-a]pyridine-7-carboxamide]
> 70%: all assays above

Cc1cc2ccnn2c(C(=O)NCC(F)F)c1NC(=O)c1cc(Br)nn1-c1ncccc1Cl [Compound 186, 6-(3-bromo-1-(3-chloropyridin-2-yl)-1H-pyrazole-5-carboxamido)-N-(2,2-difluoroethyl)-5-methylpyrazolo[1,5-a]pyridine-7-carboxamide]
> 70%: all assays above

COc1cc(C(=O)Nc2c(Cl)cc3ccnn3c2C(=O)NC(C)C)n(-c2ncccc2Cl)n1 [Compound 133, 5-chloro-6-(1-(3-chloropyridin-2-yl)-3-methoxy-1H-pyrazole-5-carboxamido)-N-isopropylpyrazolo[1,5-a]pyridine-7-carboxamide]
> 70%: all assays above

C=CCNC(=O)c1c(NC(=O)c2cc(Br)nn2-c2ncccc2Cl)c(Br)cc2ccnn12 [Compound 56, N-allyl-5-bromo-6-(3-bromo-1-(3-chloropyridin-2-yl)-1H-pyrazole-5-carboxamido)pyrazolo[1,5-a]pyridine-7-carboxamide]
> 70%: all assays above

Cc1cc2ccnn2c(C(=O)NCC2CC2)c1NC(=O)c1cc(OC2CSC2)nn1-c1ncccc1Cl [Compound 72, 6-(1-(3-chloropyridin-2-yl)-3-(thietan-3-yloxy)-1H-pyrazole-5-carboxamido)-N-(cyclopropylmethyl)-5-methylpyrazolo[1,5-a]pyridine-7-carboxamide]
> 70%: all assays above

CONC(=O)c1c(NC(=O)c2cc(OC)nn2-c2ncccc2Cl)c(C)cc2ccnn12 [Compound 42, 6-(1-(3-chloropyridin-2-yl)-3-methoxy-1H-pyrazole-5-carboxamido)-N-methoxy-5-methylpyrazolo[1,5-a]pyridine-7-carboxamide]
> 70%: all assays above

CC(C)NC(=O)c1c(NC(=O)c2cc(Br)nn2-c2ncccc2Cl)c(Cl)cc2ccnn12 [Compound 138, 6-(3-bromo-1-(3-chloropyridin-2-yl)-1H-pyrazole-5-carboxamido)-5-chloro-N-isopropylpyrazolo[1,5-a]pyridine-7-carboxamide]
> 70%: all assays above

C#CCNC(=O)c1c(NC(=O)c2cc(Br)nn2-c2ncccc2Cl)c(Br)cc2ccnn12 [Compound 57, 5-bromo-6-(3-bromo-1-(3-chloropyridin-2-yl)-1H-pyrazole-5-carboxamido)-N-(prop-2-yn-1-yl)pyrazolo[1,5-a]pyridine-7-carboxamide]
> 70%: all assays above

CCCCNC(=O)c1c(NC(=O)c2cc(Br)nn2-c2ncccc2Cl)c(Cl)cc2ccnn12 [Compound 139, 6-(3-bromo-1-(3-chloropyridin-2-yl)-1H-pyrazole-5-carboxamido)-N-butyl-5-chloropyrazolo[1,5-a]pyridine-7-carboxamide]
> 70%: all assays above

COc1cc(C(=O)Nc2c(C)cc3ccnn3c2C(=O)NC(C)C)n(-c2ncccc2Cl)n1 [Compound 32, 6-(1-(3-chloropyridin-2-yl)-3-methoxy-1H-pyrazole-5-carboxamido)-N-isopropyl-5-methylpyrazolo[1,5-a]pyridine-7-carboxamide]
> 70%: all assays above

COCC(C)(C)NC(=O)c1c(NC(=O)c2cc(Br)nn2-c2ncccc2Cl)c(C)cc2ccnn12 [Compound 174, 6-(3-bromo-1-(3-chloropyridin-2-yl)-1H-pyrazole-5-carboxamido)-N-(1-methoxy-2-methylpropan-2-yl)-5-methylpyrazolo[1,5-a]pyridine-7-carboxamide]
> 70%: all assays above

CC(C)NC(=O)c1c(NC(=O)c2cc(Br)nn2-c2ncccc2Cl)c(Br)cc2ccnn12 [Compound 91, 5-bromo-6-(3-bromo-1-(3-chloropyridin-2-yl)-1H-pyrazole-5-carboxamido)-N-isopropylpyrazolo[1,5-a]pyridine-7-carboxamide]
> 70%: all assays above

C=CCNC(=O)c1c(NC(=O)c2cc(OCC(F)(F)F)nn2-c2ncccc2Cl)c(C)cc2ccnn12 [Compound 20, N-allyl-6-(1-(3-chloropyridin-2-yl)-3-(2,2,2-trifluoroethoxy)-1H-pyrazole-5-carboxamido)-5-methylpyrazolo[1,5-a]pyridine-7-carboxamide]
> 70%: all assays above

Cc1cc2ccnn2c(C(=O)NCC#N)c1NC(=O)c1cc(Br)nn1-c1ncccc1Cl [Compound 28, 6-(3-bromo-1-(3-chloropyridin-2-yl)-1H-pyrazole-5-carboxamido)-N-(cyanomethyl)-5-methylpyrazolo[1,5-a]pyridine-7-carboxamide]
> 70%: all assays above

CONC(=O)c1c(NC(=O)c2cc(C(F)(F)F)nn2-c2ncccc2Cl)c(C)cc2ccnn12 [Compound 93, 6-(1-(3-chloropyridin-2-yl)-3-(trifluoromethyl)-1H-pyrazole-5-carboxamido)-N-methoxy-5-methylpyrazolo[1,5-a]pyridine-7-carboxamide]
> 70%: all assays above

COc1cc(C(=O)Nc2c(C)cc3ccnn3c2C(=O)NC(C)C2CC2)n(-c2ncccc2Cl)n1 (stereo not drawn) [Compound 99, 6-(1-(3-chloropyridin-2-yl)-3-methoxy-1H-pyrazole-5-carboxamido)-N-(1-cyclopropylethyl)-5-methylpyrazolo[1,5-a]pyridine-7-carboxamide]
> 70%: all assays above

O=C(Nc1c(Br)cc2ccnn2c1C(=O)NC1CC1)c1cc(Br)nn1-c1ncccc1Cl [Compound 52, 5-bromo-6-(3-bromo-1-(3-chloropyridin-2-yl)-1H-pyrazole-5-carboxamido)-N-cyclopropylpyrazolo[1,5-a]pyridine-7-carboxamide]
> 70%: all assays above

C=CCNC(=O)c1c(NC(=O)c2cc(OC)nn2-c2ncccc2Cl)c(C)cc2ccnn12 [Compound 44, N-allyl-6-(1-(3-chloropyridin-2-yl)-3-methoxy-1H-pyrazole-5-carboxamido)-5-methylpyrazolo[1,5-a]pyridine-7-carboxamide]
> 70%: all assays above

CNC(=O)c1c(NC(=O)c2cc(OC)nn2-c2ncccc2Cl)c(C)cc2ccnn12 [Compound 25, 6-(1-(3-chloropyridin-2-yl)-3-methoxy-1H-pyrazole-5-carboxamido)-N,5-dimethylpyrazolo[1,5-a]pyridine-7-carboxamide]
> 70%: all assays above

CNC(=O)c1c(NC(=O)c2cc(OCC(F)(F)F)nn2-c2ncccc2Cl)c(C)cc2ccnn12 [Compound 9, 6-(1-(3-chloropyridin-2-yl)-3-(2,2,2-trifluoroethoxy)-1H-pyrazole-5-carboxamido)-N,5-dimethylpyrazolo[1,5-a]pyridine-7-carboxamide]
> 70%: all assays above
